Common to all, as to format: physicochemical
The nature of data set [1]: Apalutamide and docetaxel microsphere release study. To be noted: within the first 24 hrs; microspheres, PEG and 20% w/v 1 μm BaSO4 groups. Here is the method:
Barium microspheres (20% w/v) were fabricated using the T-junction and then frozen overnight at −80 degrees Celsius. The next morning the microspheres were lyophilized for 1 day. Once the microspheres were fully lyophilized, they were then swollen in 10 μL 0.5 mg/mL docetaxel and apalutamide for 1 day. The next day, the excess drug was removed from the centrifuge tube and 500 μL 80:20 ethanol to DI water was added. A release study was then preformed as described above and the release profile for 20% barium microspheres was obtained.

The nature of data set [2]: Docetaxel release from PEG gels/microspheres (Example 1). Particulars: in the first 60 minutes, loaded at 0.1 mg/ml, released in 20:80 anhydrous ethanol:di-water. How it is done:
Docetaxel release and in vivo efficacy. Docetaxel was released from the PEG microspheres over several hours, with 60% released in the first 60 minutes (FIG. 2A). For bulk release experiments, docetaxel was dissolved in anhydrous ethanol, loaded in PEG gels at 0.1 mg/ml and released in a 20:80 anhydrous ethanol:di-water. Release was followed by absorbance measurements at 220 nm. […] PC3 cells (2×10^6 cells) were injected and grown to ˜120 mm^3 tumor volume prior to treatment.

Data set [3] is described as follows: Apalutamide and docetaxel bulk release from hydrogels. To be noted: after 24 h; from both PEG-only and 20% BaSO4 hydrogel.
Procedure: To determine bulk release of drugs from hydrogels, acridine orange (AO), docetaxel, bicalutamide, and apalutamide release into a sink volume was measured. Samples from the sink volume were taken over time and then the amount of sample volume that was taken out was replaced with the same amount of sink solution. The sink solution for AO experiments was PBS and the sink solution used for docetaxel, bicalutamide, and apalutamide was 80:20 ethanol to DI water. The absorbance of each sample solution was measured to calculate the concentration of drug in the sample solution. The equation used to calculate these concentrations was from the standard curves obtained for each drug or acridine orange (AO). The concentrations of drugs or AO in solution allowed for quantifying each drug release profile as well as their diffusion coefficient from a hydrogel. Apalutamide (0.5 mg/mL) stock solution was prepared in 80:20 DMSO or ethanol and DI water. A standard curve was constructed for apalutamide by creating samples of known concentrations and measuring the absorbance at 260 nm of each sample. Hydrogels were then fabricated with conditions: PEG+Doc+Apa and PEG+BaSO4+Doc+Apa (Table 6). […] Absorbances of 230 nm and 260 nm were measured for each sample to be able to obtain concentrations of docetaxel and apalutamide released into solution.

Consider `CNC(=O)c1ccc(N2C(=S)N(c3cnc(C#N)c(C(F)(F)F)c3)C(=O)C23CCC3)cc1F` [Apalutamide], for which the initial burst release in data set [1] is recorded as around 80%.
Consider `CC(=O)O[C@@]12CO[C@@H]1C[C@H](O)[C@@]1(C)C(=O)[C@H](O)C3=C(C)[C@@H](OC(=O)[C@H](O)[C@@H](NC(=O)OC(C)(C)C)c4ccccc4)C[C@@](O)([C@@H](OC(=O)c4ccccc4)[C@H]21)C3(C)C` [Docetaxel], for which the docetaxel released in data set [2] is 60%. In data set [1], this compound had an initial burst release of around 90%. Besides, the drug released in data set [3] is around 90%.

Values taken from patent US20250040935A1, “FABRICATION OF RADIOPAQUE RESORBABLE HYDROGEL BEADS VIA MICROFLUIDICS FOR CATHETER EMBOLIZATION APPLICATIONS” (Saint Louis University, priority 2023, published 2025).
